Measured values taken from article PMC9219098 (ACS Omega, 2022).
Read-outs that look alike come from different tables or passages of the source.

Molecular target: AChE (Homo sapiens, UniProt P22303)
Assay: In vitro AChE enzyme assay
Type: biochemical

Chain of AChE (P22303 32-614): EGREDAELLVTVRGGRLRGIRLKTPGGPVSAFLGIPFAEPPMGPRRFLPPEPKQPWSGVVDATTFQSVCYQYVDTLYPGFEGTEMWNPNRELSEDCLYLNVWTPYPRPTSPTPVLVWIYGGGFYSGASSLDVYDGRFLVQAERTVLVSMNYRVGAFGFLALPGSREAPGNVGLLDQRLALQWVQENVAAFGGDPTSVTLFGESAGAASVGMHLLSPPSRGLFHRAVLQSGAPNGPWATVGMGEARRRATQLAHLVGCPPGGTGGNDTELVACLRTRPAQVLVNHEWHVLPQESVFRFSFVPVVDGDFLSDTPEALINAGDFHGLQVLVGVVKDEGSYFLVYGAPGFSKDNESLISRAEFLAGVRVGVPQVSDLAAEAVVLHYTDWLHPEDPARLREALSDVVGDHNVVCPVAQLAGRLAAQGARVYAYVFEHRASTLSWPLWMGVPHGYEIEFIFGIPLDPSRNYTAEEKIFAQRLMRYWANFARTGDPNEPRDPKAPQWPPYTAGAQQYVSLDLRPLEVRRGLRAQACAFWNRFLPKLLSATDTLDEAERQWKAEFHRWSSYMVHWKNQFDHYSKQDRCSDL

SMILES	IC50 [µM]	IC50 (Ellman method, ACTI substrate, mean ± SD, triplicate) [µM]
CC(=O)C=Cc1ccc(C(F)(F)F)cc1 [CHEMBL74630, 1-[4-(trifluoromethyl)phenyl]but-1-en-3-one]	26.3 ± 2.18	
Cc1cccc(C(=O)C(F)(F)F)c1 [CHEMBL86868, 3′-methyl-2,2,2-trifluoroacetophenone, reference compound]	0.35 ± 0.03	
O=C(c1ccccc1)C(F)(F)F [CHEMBL293277, trifluoroacetophenone]	4.61 ± 0.34	
COC(F)(F)C(F)(F)C(F)(F)C(F)(F)F [CHEMBL500823, methyl nonafluorobutyl ether]		52.6 ± 4.14
FC(F)(F)C(F)(F)C(F)(F)C(F)(F)C(F)(F)C(F)(F)F [CHEMBL1200607, perflexane]	50.7 ± 3.73	
